Laboratory results from patent US20040249129A1, “Novel lactic bacteria of the genus lactococcus lactis and use thereof for preserving food products” (priority 2001, published 2004).
Where a SMILES comes first, the peptide text is derived from it. Bridges are numbered along the chain shown (N, C = ends). [ ]: non-standard residue; d: D form. The star is where a group is joined. Ileψ(thiazoline)Cys = CC[C@H](C)[C@H](N)C1=N[C@H](C(=O)*)CS1; dOrn = NCCC[C@@H](N)C(=O)O

test system: LLO strain; assay: antibiogram of the strain LLO with antibiotic discs; format: cell-based, Lactococcus lactis; details: antibiotic discs on Mueller Hinton medium, 5% horse blood, pH 7.3; 48 hours at ambient temperature; streptomycin 10 U.I., kanamycin 30 U.I., gentamicin 10 U.I.
Procedure: An antibiogram has been produced with the strain LLO to study its resistance to several antibiotics.
The test is carried out on Mueller Hinton medium containing 1.7% agar and 5% horse blood, the pH is 7.3. The thickness of the agar in the Petri dishes is constant, it is 4 mm. It is a standardized medium according to the O.M.S. standards.
The LLO strain is cultivated in an MRS broth, pH 6.5, for […] at 15° C. until there is obtained the stationary phase. The culture is diluted to 1/10th in a Mueller Hinton broth. The approximate concentration of the suspension is 10^6 bacteria/ml.
The agar media are completely covered with 2 ml of the suspension. The excess liquid is withdrawn and the dishes are dried 10 minutes at ambient temperature. The antibiotic discs are deposited with the help of tongs (4 maximum). The dishes are incubated at ambient temperature for 48 hours.

Compound | Result (antibiogram)
CCC[C@@H]1C[C@@H](C(=O)N[C@@H]([C@H]2O[C@H](SC)[C@H](O)[C@@H](O)[C@H]2O)[C@@H](C)O)N(C)C1 [Lincomycin] | Noticeable
CC1(C)S[C@@H]2[C@H](NC(=O)[C@H](N)c3ccccc3)C(=O)N2[C@H]1C(=O)O [Ampicillin] | Noticeable
C[C@H]1c2cccc(O)c2C(O)=C2C(=O)[C@]3(O)C(O)=C(C(N)=O)C(=O)[C@@H](N(C)C)[C@@H]3[C@@H](O)[C@@H]21 [Doxycyclin] | Noticeable
CC[C@H]1OC(=O)[C@H](C)[C@@H](O[C@H]2C[C@@](C)(OC)[C@@H](O)[C@H](C)O2)[C@H](C)[C@@H](O[C@@H]2O[C@H](C)C[C@H](N(C)C)[C@H]2O)[C@](C)(O)C[C@@H](C)C(=O)[C@H](C)[C@@H](O)[C@]1(C)O [Erythromycin] | Noticeable
CC[C@H](C)[C@H](N)C1=N[C@H](C(=O)N[C@@H](CC(C)C)C(=O)N[C@H](CCC(=O)O)C(=O)N[C@H](C(=O)N[C@H]2CCCCNC(=O)[C@H](CC(N)=O)NC(=O)[C@@H](CC(=O)O)NC(=O)[C@H](Cc3cnc[nH]3)NC(=O)[C@@H](Cc3ccccc3)NC(=O)[C@H]([C@@H](C)CC)NC(=O)[C@@H](CCCN)NC2=O)[C@@H](C)CC)CS1 [Bacitracin] ({Ileψ(thiazoline)Cys}-L[dE]IK[dOrn]I[dF]H[dD]N; lactam 4-C) | Noticeable
CC1(C)S[C@@H]2[C@H](NC(=O)Cc3ccccc3)C(=O)N2[C@H]1C(=O)O [Penicillin G] | Noticeable
CC1CCc2cc(F)cc3c(=O)c(C(=O)O)cn1c23 (stereo not drawn) [Flumequin] | Resistant
Gentamicin | Noticeable
c1ccoc1 [Furan] | Resistant
CCN1CCN(c2cc3c(cc2F)c(=O)c(C(=O)O)cn3C2CC2)CC1 [Enrofloxacin] | Noticeable
CN(C)[C@@H]1C(=O)C(C(N)=O)=C(O)[C@@]2(O)C(=O)C3=C(O)c4c(O)cccc4[C@@](C)(O)[C@H]3C[C@@H]12 [Tetracyclin] | Noticeable
[H]/N=C(/N)N[C@H]1[C@H](O)[C@@H](O)[C@H](O[C@@H]2O[C@@H](C)[C@](O)(C=O)[C@H]2O[C@@H]2O[C@@H](CO)[C@H](O)[C@@H](O)[C@@H]2NC)[C@@H](N/C(N)=N\[H])[C@@H]1O [Streptomycin] | Noticeable
CC1=C(C(=O)O)N2C(=O)[C@@H](NC(=O)[C@H](N)c3ccccc3)[C@H]2SC1 [Cefalexin] | Noticeable
O=C(N[C@H](CO)[C@H](O)c1ccc([N+](=O)[O-])cc1)C(Cl)Cl [Chloramphenicol] | Noticeable
Spiramycin | Noticeable
